Laboratory results reported in patent US20250000843A1, “LIGNAN-INSPIRED COMPOUNDS, METHODS OF MAKING, AND USING THEREOF” (IOWAIBO, INC., priority 2023, published 2025).

Tested on: MCF7 (human breast cancer cell line)
Assay: MTT toxicity assay in MCF7 breast cancer cells
Type: cell-based
Details: for breast cancer cell death as compared to enterolactone: MCF7, at higher concentrations, 24 hours and 72 hours post-treatment
Procedure: Toxicity of the dibenzyl butyl lactone derivative (3-[(3,4-dimethoxyphenyl)cyclopentyl], 4-[(3-hydroxyphenol)methyl]oxolan-2-one) in breast cancer cells was evaluated using MTT assay. The MTT toxicity test is a colorimetric assay to measure cells' metabolic activity by serving as a substrate of cellular enzymes that reduce the tetrazolium orange dye, MTT (3-(4,5-Dimethylthiazol-2-yl)-2,5-diphenyltetrazolium bromide) to its insoluble, formazan, giving a purple color. The rate of conversion is directly proportional to cells' mitochondrial metabolic activity via NAD (P) H-dependent cellular oxidoreductase enzymes and serves as a surrogate marker of cell viability.
Cultures of MCF7 (human breast cancer cell line) working stock (5 passages) were established under standard culture conditions in Eagle's minimum essential medium (EMEM). EMEM was supplemented with 10% fetal bovine serum (FBS), 2 mM Glutamine and Pen/Strep, and Penicillin 0.01 mg/ml.
Cells previously expanded were seeded in 96 well plates at 1.9×10^5 and 9.6×10^4 cells/plate for 24- and 72-hours treatment respectively. This concentration is known to show the best window for the MTT assay, with better sensitivity and low variability.
5 mg of powdered enterolactone, dibenzyl butyl lactone derivative enantiomer A, and dibenzyl butyl lactone derivative enantiomer B were dissolved in 500 μl of DMSO at room temperature. Eight-point curves, ⅓ dilutions (highest concentration 125 μM), were prepared.
Twenty-four hours following the seeding process, the cells were washed once with phosphate buffered saline (PBS) and treated with the respective compounds in cell culture media. Each condition was tested in triplicates. For positive and negative controls, 8 mM methyl methane sulfonate (MMS) and DMSO 100% were used respectively.
Following compound addition, the plates were incubated for 24 and 72 hours. After the treatment period, cells were washed twice with PBS and media was replaced with MTT reagent at 0.5 mg/ml in Dulbecco's modified Eagle medium (DMEM) without phenol red. The plates were gently shaken and incubated for 4 hours. After the incubation the medium was removed and replaced by DMSO. The plates were gently shaken to solubilize the formazan crystals. Absorbance was measured using an Envision multiplate reader at a wavelength of 570 nm.
Eight serial dilutions were prepared (125.00, 41.67, 13.89, 4.63, 1.54, 0.51, 0.17 and 0.06 µM to evaluate the compounds (in triplicate). MTT results showing cell death values above 20% are considered as having a significant toxic effect.
MTT assay results are shown in Tables 2-7 and expressed as the percentage of cell death after treatment.

## O=C1OC[C@H](Cc2cccc(O)c2)[C@H]1Cc1cccc(O)c1 (racemic) [Enterolactone, reference compound]
MCF7, 24 hours, 0.06 μM
  Cell death #1 (%): −11.97%
  Cell death #2 (%): −41.20%
  Cell death #3 (%): −33.13%
  Cell death (%) MEAN: −28.77%
MCF7, 24 hours, 0.17 μM
  Cell death #1 (%): −14.66%
  Cell death #2 (%): −12.36%
  Cell death #3 (%): −5.43%
  Cell death (%) MEAN: −10.82%
MCF7, 24 hours, 0.51 μM
  Cell death #1 (%): 2.26%
  Cell death #2 (%): −23.51%
  Cell death #3 (%): −19.28%
  Cell death (%) MEAN: −13.51%
MCF7, 24 hours, 1.54 μM
  Cell death #1 (%): −16.20%
  Cell death #2 (%): −16.97%
  Cell death #3 (%): −21.20%
  Cell death (%) MEAN: −18.13%
MCF7, 24 hours, 4.63 μM
  Cell death #1 (%): −5.05%
  Cell death #2 (%): −19.28%
  Cell death #3 (%): −25.82%
  Cell death (%) MEAN: −16.71%
MCF7, 24 hours, 13.89 μM
  Cell death #1 (%): −10.05%
  Cell death #2 (%): −8.13%
  Cell death #3 (%): −3.51%
  Cell death (%) MEAN: −7.23%
MCF7, 24 hours, 41.67 μM
  Cell death #1 (%): −30.05%
  Cell death #2 (%): −30.43%
  Cell death #3 (%): −40.43%
  Cell death (%) MEAN: −33.64%
MCF7, 24 hours, 125.00 μM
  Cell death #1 (%): −13.51%
  Cell death #2 (%): −8.13%
  Cell death #3 (%): 7.64%
  Cell death (%) MEAN: −4.66%
MCF7, 72 hours, 0.06 μM
  Cell death #1 (%): −30.40%
  Cell death #2 (%): −23.70%
  Cell death #3 (%): −42.46%
  Cell death (%) MEAN: −32.19%
MCF7, 72 hours, 0.17 μM
  Cell death #1 (%): −67.59%
  Cell death #2 (%): −62.23%
  Cell death #3 (%): −65.91%
  Cell death (%) MEAN: −65.24%
MCF7, 72 hours, 0.51 μM
  Cell death #1 (%): −66.25%
  Cell death #2 (%): −61.22%
  Cell death #3 (%): −61.89%
  Cell death (%) MEAN: −63.12%
MCF7, 72 hours, 1.54 μM
  Cell death #1 (%): −70.27%
  Cell death #2 (%): −54.19%
  Cell death #3 (%): −60.89%
  Cell death (%) MEAN: −61.78%
MCF7, 72 hours, 4.63 μM
  Cell death #1 (%): −53.85%
  Cell death #2 (%): −66.92%
  Cell death #3 (%): −69.26%
  Cell death (%) MEAN: −63.34%
MCF7, 72 hours, 13.89 μM
  Cell death #1 (%): −48.83%
  Cell death #2 (%): −38.44%
  Cell death #3 (%): −39.11%
  Cell death (%) MEAN: −42.13%
MCF7, 72 hours, 41.67 μM
  Cell death #1 (%): −22.36%
  Cell death #2 (%): −24.04%
  Cell death #3 (%): −22.70%
  Cell death (%) MEAN: −23.03%
MCF7, 72 hours, 125.00 μM
  Cell death #1 (%): 88.19%
  Cell death #2 (%): 90.54%
  Cell death #3 (%): 89.20%
  Cell death (%) MEAN: 89.31%

## O=C1OCC(Cc2ccc3c(c2)OCO3)/C1=C\c1cccc(O)c1 (single isomer, unassigned) [Enantiomer A, 3-[(3,4-dimethoxyphenyl)cyclopentyl], 4-[(3-hydroxyphenol)methyl]oxolan-2-one]
MCF7, 24 hours, 0.06 μM
  Cell death #1 (%): −25.82%
  Cell death #2 (%): −37.36%
  Cell death #3 (%): −35.43%
  Cell death (%) MEAN: −32.87%
MCF7, 24 hours, 0.17 μM
  Cell death #1 (%): −27.36%
  Cell death #2 (%): −44.28%
  Cell death #3 (%): −55.05%
  Cell death (%) MEAN: −42.23%
MCF7, 24 hours, 0.51 μM
  Cell death #1 (%): −57.74%
  Cell death #2 (%): −18.51%
  Cell death #3 (%): −45.82%
  Cell death (%) MEAN: −40.69%
MCF7, 24 hours, 1.54 μM
  Cell death #1 (%): −48.89%
  Cell death #2 (%): −51.59%
  Cell death #3 (%): −43.51%
  Cell death (%) MEAN: −48.00%
MCF7, 24 hours, 4.63 μM
  Cell death #1 (%): −58.89%
  Cell death #2 (%): −57.74%
  Cell death #3 (%): −34.66%
  Cell death (%) MEAN: −50.43%
MCF7, 24 hours, 13.89 μM
  Cell death #1 (%): −61.20%
  Cell death #2 (%): −35.05%
  Cell death #3 (%): −25.05%
  Cell death (%) MEAN: −40.43%
MCF7, 24 hours, 41.67 μM
  Cell death #1 (%): −83.51%
  Cell death #2 (%): −78.89%
  Cell death #3 (%): −45.05%
  Cell death (%) MEAN: −69.15%
MCF7, 24 hours, 125.00 μM
  Cell death #1 (%): 98.41%
  Cell death #2 (%): 95.72%
  Cell death #3 (%): 100.72%
  Cell death (%) MEAN: 98.29%
MCF7, 72 hours, 0.06 μM
  Cell death #1 (%): −51.17%
  Cell death #2 (%): −29.40%
  Cell death #3 (%): −11.64%
  Cell death (%) MEAN: −30.74%
MCF7, 72 hours, 0.17 μM
  Cell death #1 (%): −56.87%
  Cell death #2 (%): −58.21%
  Cell death #3 (%): −50.17%
  Cell death (%) MEAN: −55.08%
MCF7, 72 hours, 0.51 μM
  Cell death #1 (%): −79.98%
  Cell death #2 (%): −51.84%
  Cell death #3 (%): −72.61%
  Cell death (%) MEAN: −68.15%
MCF7, 72 hours, 1.54 μM
  Cell death #1 (%): −57.87%
  Cell death #2 (%): −73.62%
  Cell death #3 (%): −58.88%
  Cell death (%) MEAN: −63.46%
MCF7, 72 hours, 4.63 μM
  Cell death #1 (%): −90.37%
  Cell death #2 (%): −113.15%
  Cell death #3 (%): −79.31%
  Cell death (%) MEAN: −94.28%
MCF7, 72 hours, 13.89 μM
  Cell death #1 (%): −43.13%
  Cell death #2 (%): −52.85%
  Cell death #3 (%): −46.15%
  Cell death (%) MEAN: −47.38%
MCF7, 72 hours, 41.67 μM
  Cell death #1 (%): 15.49%
  Cell death #2 (%): 4.10%
  Cell death #3 (%): 2.76%
  Cell death (%) MEAN: 7.45%
MCF7, 72 hours, 125.00 μM
  Cell death #1 (%): 99.92%
  Cell death #2 (%): 99.92%
  Cell death #3 (%): 99.58%
  Cell death (%) MEAN: 99.80%
  breast cancer cell death as compared to enterolactone: increased breast cancer cell death as compared to enterolactone

## O=C1OCC(Cc2ccc3c(c2)OCO3)/C1=C\c1cccc(O)c1 (single isomer, unassigned) [Enantiomer B, 3-[(3,4-dimethoxyphenyl)cyclopentyl], 4-[(3-hydroxyphenol)methyl]oxolan-2-one]
MCF7, 24 hours, 0.06 μM
  Cell death #1 (%): −90.03%
  Cell death #2 (%): −85.75%
  Cell death #3 (%): −79.34%
  Cell death (%) MEAN: −85.04%
MCF7, 24 hours, 0.17 μM
  Cell death #1 (%): −146.30%
  Cell death #2 (%): −115.67%
  Cell death #3 (%): −91.45%
  Cell death (%) MEAN: −117.81%
MCF7, 24 hours, 0.51 μM
  Cell death #1 (%): −124.22%
  Cell death #2 (%): −120.66%
  Cell death #3 (%): −95.01%
  Cell death (%) MEAN: −113.30%
MCF7, 24 hours, 1.54 μM
  Cell death #1 (%): −115.67%
  Cell death #2 (%): −156.99%
  Cell death #3 (%): −114.96%
  Cell death (%) MEAN: −129.21%
MCF7, 24 hours, 4.63 μM
  Cell death #1 (%): −134.19%
  Cell death #2 (%): −163.40%
  Cell death #3 (%): −138.47%
  Cell death (%) MEAN: −145.35%
MCF7, 24 hours, 13.89 μM
  Cell death #1 (%): −132.06%
  Cell death #2 (%): −174.09%
  Cell death #3 (%): −134.91%
  Cell death (%) MEAN: −147.02%
MCF7, 24 hours, 41.67 μM
  Cell death #1 (%): −211.84%
  Cell death #2 (%): −192.61%
  Cell death #3 (%): −204.01%
  Cell death (%) MEAN: −202.82%
MCF7, 24 hours, 125.00 μM
  Cell death #1 (%): 63.85%
  Cell death #2 (%): 47.46%
  Cell death #3 (%): 63.13%
  Cell death (%) MEAN: 58.15%
MCF7, 72 hours, 0.06 μM
  Cell death #1 (%): −31.84%
  Cell death #2 (%): −27.21%
  Cell death #3 (%): −56.05%
  Cell death (%) MEAN: −38.37%
MCF7, 72 hours, 0.17 μM
  Cell death #1 (%): −74.60%
  Cell death #2 (%): −57.08%
  Cell death #3 (%): −52.45%
  Cell death (%) MEAN: −61.38%
MCF7, 72 hours, 0.51 μM
  Cell death #1 (%): −28.49%
  Cell death #2 (%): −52.45%
  Cell death #3 (%): −56.31%
  Cell death (%) MEAN: −45.75%
MCF7, 72 hours, 1.54 μM
  Cell death #1 (%): −22.57%
  Cell death #2 (%): −37.77%
  Cell death #3 (%): −19.48%
  Cell death (%) MEAN: −26.60%
MCF7, 72 hours, 4.63 μM
  Cell death #1 (%): −32.87%
  Cell death #2 (%): −34.42%
  Cell death #3 (%): −30.04%
  Cell death (%) MEAN: −32.44%
MCF7, 72 hours, 13.89 μM
  Cell death #1 (%): −23.34%
  Cell death #2 (%): −30.55%
  Cell death #3 (%): −9.69%
  Cell death (%) MEAN: −21.20%
MCF7, 72 hours, 41.67 μM
  Cell death #1 (%): −18.96%
  Cell death #2 (%): −6.08%
  Cell death #3 (%): 17.10%
  Cell death (%) MEAN: −2.65%
MCF7, 72 hours, 125.00 μM
  Cell death #1 (%): 99.00%
  Cell death #2 (%): 99.52%
  Cell death #3 (%): 99.00%
  Cell death (%) MEAN: 99.17%
  breast cancer cell death as compared to enterolactone: increased breast cancer cell death as compared to enterolactone
